Results as given in ChEMBL document CHEMBL3991601, “The target landscape of clinical kinase drugs” (Science, 2017).
Calls of active or inactive are those of the source. For most assays here, no stated cut-off is given here; in the data, actives have a measured Kd and inactives only a lower limit.

What was measured:
[1] = target: T1, Mitogen-activated protein kinase kinase kinase kinase 3 (Homo sapiens, UniProt Q8IVH8)
T1 sequence (Q8IVH8 whole entry): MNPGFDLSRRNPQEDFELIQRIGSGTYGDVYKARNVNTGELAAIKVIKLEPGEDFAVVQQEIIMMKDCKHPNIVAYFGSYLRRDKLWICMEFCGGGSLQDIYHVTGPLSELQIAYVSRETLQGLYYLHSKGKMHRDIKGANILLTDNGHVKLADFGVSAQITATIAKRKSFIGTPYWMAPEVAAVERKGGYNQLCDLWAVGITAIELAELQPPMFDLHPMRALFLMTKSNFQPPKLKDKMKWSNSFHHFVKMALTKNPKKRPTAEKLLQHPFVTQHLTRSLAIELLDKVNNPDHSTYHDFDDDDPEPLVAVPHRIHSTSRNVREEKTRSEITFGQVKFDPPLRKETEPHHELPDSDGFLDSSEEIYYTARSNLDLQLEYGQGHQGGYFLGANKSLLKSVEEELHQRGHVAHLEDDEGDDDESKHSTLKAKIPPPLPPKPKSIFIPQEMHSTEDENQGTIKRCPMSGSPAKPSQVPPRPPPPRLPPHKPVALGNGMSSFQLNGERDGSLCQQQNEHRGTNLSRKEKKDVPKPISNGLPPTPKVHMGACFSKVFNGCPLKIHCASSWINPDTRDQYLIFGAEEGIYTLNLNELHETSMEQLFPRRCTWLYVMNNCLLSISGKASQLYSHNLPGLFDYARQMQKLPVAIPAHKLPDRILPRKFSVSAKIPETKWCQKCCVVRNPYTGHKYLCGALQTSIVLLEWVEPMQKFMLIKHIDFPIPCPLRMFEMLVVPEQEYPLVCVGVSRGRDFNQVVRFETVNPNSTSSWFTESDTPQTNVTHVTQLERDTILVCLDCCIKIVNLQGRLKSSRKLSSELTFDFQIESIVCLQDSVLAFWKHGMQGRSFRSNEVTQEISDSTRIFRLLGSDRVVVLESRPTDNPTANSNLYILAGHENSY

[2] = target: MAP/microtubule affinity-regulating kinase 3 (Homo sapiens, UniProt P27448)
Chain of MAP/microtubule affinity-regulating kinase 3 (P27448 whole entry): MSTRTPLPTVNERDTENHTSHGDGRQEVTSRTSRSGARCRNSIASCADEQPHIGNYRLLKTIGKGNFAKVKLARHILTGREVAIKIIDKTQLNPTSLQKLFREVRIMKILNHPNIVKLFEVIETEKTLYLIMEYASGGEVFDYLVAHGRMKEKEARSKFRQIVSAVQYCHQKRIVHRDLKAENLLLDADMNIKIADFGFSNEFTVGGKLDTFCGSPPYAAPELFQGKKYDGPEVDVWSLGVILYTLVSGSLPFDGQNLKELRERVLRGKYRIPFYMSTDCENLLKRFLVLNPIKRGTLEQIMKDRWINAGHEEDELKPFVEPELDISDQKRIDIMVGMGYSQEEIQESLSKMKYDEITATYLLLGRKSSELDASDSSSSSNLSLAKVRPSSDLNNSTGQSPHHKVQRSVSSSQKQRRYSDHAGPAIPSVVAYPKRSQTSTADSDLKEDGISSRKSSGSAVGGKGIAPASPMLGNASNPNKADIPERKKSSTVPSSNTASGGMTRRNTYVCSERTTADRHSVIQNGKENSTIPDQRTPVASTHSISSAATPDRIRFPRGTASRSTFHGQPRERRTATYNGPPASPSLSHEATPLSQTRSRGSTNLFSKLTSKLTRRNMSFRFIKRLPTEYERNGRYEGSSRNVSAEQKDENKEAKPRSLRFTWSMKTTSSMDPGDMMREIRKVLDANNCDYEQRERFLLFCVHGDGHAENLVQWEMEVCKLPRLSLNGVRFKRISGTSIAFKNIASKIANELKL

[3] = target: T2, Structural maintenance of chromosomes protein 1A (Homo sapiens, UniProt Q14683)
T2 sequence (Q14683 whole entry): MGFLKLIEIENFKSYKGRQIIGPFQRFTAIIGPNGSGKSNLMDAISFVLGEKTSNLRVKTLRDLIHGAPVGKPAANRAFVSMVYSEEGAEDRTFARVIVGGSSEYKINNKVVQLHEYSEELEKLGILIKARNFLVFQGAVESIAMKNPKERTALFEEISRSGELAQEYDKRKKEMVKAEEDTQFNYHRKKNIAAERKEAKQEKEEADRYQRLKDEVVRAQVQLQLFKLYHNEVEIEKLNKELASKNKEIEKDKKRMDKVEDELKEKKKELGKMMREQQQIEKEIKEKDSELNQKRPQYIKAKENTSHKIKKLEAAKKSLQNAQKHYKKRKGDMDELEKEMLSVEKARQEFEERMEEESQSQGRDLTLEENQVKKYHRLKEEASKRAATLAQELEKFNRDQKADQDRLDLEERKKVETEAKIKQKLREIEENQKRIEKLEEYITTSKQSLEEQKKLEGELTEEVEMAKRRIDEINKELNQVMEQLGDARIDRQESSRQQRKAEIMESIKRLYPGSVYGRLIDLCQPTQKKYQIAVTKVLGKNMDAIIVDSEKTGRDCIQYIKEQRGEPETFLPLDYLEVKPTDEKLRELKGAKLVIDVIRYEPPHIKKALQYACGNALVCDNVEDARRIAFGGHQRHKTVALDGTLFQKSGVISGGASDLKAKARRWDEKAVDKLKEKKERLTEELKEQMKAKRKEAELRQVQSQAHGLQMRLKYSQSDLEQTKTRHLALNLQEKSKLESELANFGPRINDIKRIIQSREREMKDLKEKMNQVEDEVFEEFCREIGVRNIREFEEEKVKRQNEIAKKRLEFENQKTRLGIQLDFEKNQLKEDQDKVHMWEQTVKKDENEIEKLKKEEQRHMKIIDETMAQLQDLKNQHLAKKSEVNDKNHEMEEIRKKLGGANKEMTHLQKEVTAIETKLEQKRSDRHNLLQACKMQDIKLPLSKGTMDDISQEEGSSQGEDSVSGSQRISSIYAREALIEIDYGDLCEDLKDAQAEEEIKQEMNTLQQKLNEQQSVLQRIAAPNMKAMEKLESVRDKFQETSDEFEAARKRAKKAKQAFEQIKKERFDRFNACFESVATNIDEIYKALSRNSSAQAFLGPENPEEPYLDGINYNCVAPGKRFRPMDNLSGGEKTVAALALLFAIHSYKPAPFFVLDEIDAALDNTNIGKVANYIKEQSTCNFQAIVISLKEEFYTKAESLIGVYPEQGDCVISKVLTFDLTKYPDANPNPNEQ

[4] = target: T3, Mitogen-activated protein kinase kinase kinase 2 (Homo sapiens, UniProt Q9Y2U5)
T3 sequence (Q9Y2U5 whole entry): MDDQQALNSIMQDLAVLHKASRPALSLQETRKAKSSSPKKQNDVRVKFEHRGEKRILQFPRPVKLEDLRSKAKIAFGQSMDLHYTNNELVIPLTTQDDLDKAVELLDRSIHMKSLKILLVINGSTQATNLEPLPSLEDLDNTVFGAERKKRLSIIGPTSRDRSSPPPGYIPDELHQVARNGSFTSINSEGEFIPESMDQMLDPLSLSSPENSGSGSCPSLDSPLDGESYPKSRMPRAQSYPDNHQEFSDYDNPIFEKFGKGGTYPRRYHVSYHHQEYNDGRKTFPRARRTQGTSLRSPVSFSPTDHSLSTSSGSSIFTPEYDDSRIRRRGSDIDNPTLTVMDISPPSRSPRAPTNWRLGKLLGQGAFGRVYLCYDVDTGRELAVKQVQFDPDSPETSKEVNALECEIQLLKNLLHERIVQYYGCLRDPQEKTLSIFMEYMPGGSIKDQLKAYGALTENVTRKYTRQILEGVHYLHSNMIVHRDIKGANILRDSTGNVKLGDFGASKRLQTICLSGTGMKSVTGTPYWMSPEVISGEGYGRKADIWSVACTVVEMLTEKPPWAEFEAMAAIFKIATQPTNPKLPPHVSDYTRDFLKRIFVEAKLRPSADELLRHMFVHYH

[5] = target: Cyclin-dependent kinase 1 (Homo sapiens, UniProt P06493)
Chain of Cyclin-dependent kinase 1 (P06493 whole entry): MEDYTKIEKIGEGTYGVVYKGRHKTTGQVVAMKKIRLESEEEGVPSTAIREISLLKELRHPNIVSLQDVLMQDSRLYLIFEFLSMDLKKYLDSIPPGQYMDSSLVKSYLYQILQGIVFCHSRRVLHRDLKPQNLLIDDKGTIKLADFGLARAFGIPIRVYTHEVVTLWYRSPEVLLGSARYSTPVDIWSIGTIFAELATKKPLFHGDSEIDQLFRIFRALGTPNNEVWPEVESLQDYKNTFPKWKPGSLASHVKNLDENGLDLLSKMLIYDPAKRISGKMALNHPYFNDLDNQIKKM

[6] = target: Serine/threonine-protein kinase 26 (Homo sapiens, UniProt Q9P289)
Chain of Serine/threonine-protein kinase 26 (Q9P289 whole entry): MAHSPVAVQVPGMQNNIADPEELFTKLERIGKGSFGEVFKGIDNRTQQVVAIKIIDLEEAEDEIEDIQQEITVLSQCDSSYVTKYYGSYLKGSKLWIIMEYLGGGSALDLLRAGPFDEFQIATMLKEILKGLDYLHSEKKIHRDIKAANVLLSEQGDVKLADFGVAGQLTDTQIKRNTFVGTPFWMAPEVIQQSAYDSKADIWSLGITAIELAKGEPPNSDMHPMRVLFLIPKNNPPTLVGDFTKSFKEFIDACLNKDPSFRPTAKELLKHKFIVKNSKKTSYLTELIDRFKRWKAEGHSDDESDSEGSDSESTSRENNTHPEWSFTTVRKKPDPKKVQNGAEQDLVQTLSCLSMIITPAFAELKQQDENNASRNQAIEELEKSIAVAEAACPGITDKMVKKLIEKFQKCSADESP

| Kd [1] | Kd [2] | Kd [3] | Kd [4] | Kd [5] | Kd [6] | SMILES |
| --- | --- | --- | --- | --- | --- | --- |
| > 30 µM (inactive) | > 30 µM (inactive) | > 30 µM (inactive) | > 30 µM (inactive) | > 30 µM (inactive) | > 30 µM (inactive) | COc1cc(Nc2ncc(F)c(Nc3ccc4c(n3)N(COP(=O)(O)O)C(=O)C(C)(C)O4)n2)cc(OC)c1OC [FOSTAMATINIB] |
| > 30 µM (inactive) | > 30 µM (inactive) | > 30 µM (inactive) | > 30 µM (inactive) | > 30 µM (inactive) | > 30 µM (inactive) | CNC(=O)c1cc(COc2nnc(Nc3ccc(Cl)cc3)c3ccoc23)ccn1 [TELATINIB] |
| > 30 µM (inactive) | > 30 µM (inactive) | > 30 µM (inactive) | > 30 µM (inactive) | > 30 µM (inactive) | > 30 µM (inactive) | COc1ccc(-c2ccc3ncc4c(c3c2)n(-c2ccc(N3CCNCC3)c(C(F)(F)F)c2)c(=O)n4C)cn1 [BGT-226 FREE BASE] |
| > 30 µM (inactive) | > 30 µM (inactive) | > 30 µM (inactive) | > 30 µM (inactive) | > 30 µM (inactive) | > 30 µM (inactive) | FC(F)(F)c1ccc(CNc2ccc(Cc3c[nH]c4ncc(Cl)cc34)cn2)cn1 [PEXIDARTINIB] |
| > 30 µM (inactive) | > 30 µM (inactive) | > 30 µM (inactive) | > 30 µM (inactive) | > 30 µM (inactive) | > 30 µM (inactive) | S=C(NCc1ccc2c(c1)OCO2)N1CCN(c2ncnc3c2oc2ccccc23)CC1 [AMUVATINIB] |
| > 30 µM (inactive) | > 30 µM (inactive) | > 30 µM (inactive) | > 30 µM (inactive) | > 30 µM (inactive) | > 30 µM (inactive) | C=CC(=O)Nc1cccc(Nc2nc(Nc3ccc(N4CCN(C(C)=O)CC4)cc3OC)ncc2C(F)(F)F)c1 [ROCILETINIB] |
| > 30 µM (inactive) | > 30 µM (inactive) | > 30 µM (inactive) | > 30 µM (inactive) | > 30 µM (inactive) | > 30 µM (inactive) | Cc1cc(Nc2nc(N[C@@H](C)c3ncc(F)cn3)ncc2Cl)n[nH]1 [AZD-1480] |
| > 30 µM (inactive) | > 30 µM (inactive) | > 30 µM (inactive) | > 30 µM (inactive) | > 30 µM (inactive) | > 30 µM (inactive) | O=S(=O)(c1cccc2c(O)nccc12)N1CCCNCC1 [HYDROXYFASUDIL] |
| > 30 µM (inactive) | > 30 µM (inactive) | > 30 µM (inactive) | > 30 µM (inactive) | > 30 µM (inactive) | > 30 µM (inactive) | C[C@@H]1COC(Nc2ccc3ncnc(Nc4ccc(OCc5nccs5)c(Cl)c4)c3c2)=N1 [VARLITINIB] |
| > 30 µM (inactive) | 0.562 µM (active) | > 30 µM (inactive) | 4.45 µM (active) | > 30 µM (inactive) | 1.14 µM (active) | CC[C@@](C)(Nc1ccnc(-c2c[nH]c3ncccc23)n1)C(=O)NCC(F)(F)F [DECERNOTINIB] |
| > 30 µM (inactive) | > 30 µM (inactive) | > 30 µM (inactive) | > 30 µM (inactive) | > 30 µM (inactive) | > 30 µM (inactive) | CCc1cc2c(cc1N1CCC(N3CCOCC3)CC1)C(C)(C)c1[nH]c3cc(C#N)ccc3c1C2=O [ALECTINIB] |
| > 30 µM (inactive) | > 30 µM (inactive) | > 30 µM (inactive) | > 30 µM (inactive) | > 30 µM (inactive) | > 30 µM (inactive) | C#Cc1cccc(Nc2ncnc3cc4c(cc23)OCCOCCOCCO4)c1 [ICOTINIB] |
| > 30 µM (inactive) | > 30 µM (inactive) | > 30 µM (inactive) | > 30 µM (inactive) | > 30 µM (inactive) | > 30 µM (inactive) | COc1ccc2c(OCc3nnc4ccc(-c5ccccc5)nn34)ccnc2c1 [AMG-208] |
| > 30 µM (inactive) | > 30 µM (inactive) | > 30 µM (inactive) | > 30 µM (inactive) | > 30 µM (inactive) | > 30 µM (inactive) | CC(C)(O)CC(=O)NCCn1ccc2ncnc(Nc3ccc(Oc4cccc(C(F)(F)F)c4)c(Cl)c3)c21 [TAK-285] |
| > 30 µM (inactive) | > 30 µM (inactive) | > 30 µM (inactive) | > 30 µM (inactive) | > 30 µM (inactive) | > 30 µM (inactive) | CNC(=O)c1cccc(-c2ccc3c(N4CCOC[C@@H]4C)nc(N4CCOC[C@@H]4C)nc3n2)c1 [VISTUSERTIB] |

| SMILES | Kd [1] | Kd [2] | Kd [3] | Kd [4] | Kd [5] | Kd [6] |
| --- | --- | --- | --- | --- | --- | --- |
| CC1(COc2ccc3c(c2)ncn3-c2ccc3cccc(N4CCC(N)CC4)c3n2)COC1 [CRENOLANIB] | 0.406 µM (active) | 0.22 µM (active) | > 30 µM (inactive) | > 30 µM (inactive) | 1.38 µM (active) | 0.013 µM (active) |
| CC(C)CC(=O)Nc1[nH]nc2c1CN(C(=O)C1CCN(C)CC1)C2(C)C [PHA-793887] | > 30 µM (inactive) | > 30 µM (inactive) | > 30 µM (inactive) | > 30 µM (inactive) | 2.56 µM (active) | 0.175 µM |
| C=CCn1c(=O)c2cnc(Nc3ccc(N4CCN(C)CC4)cc3)nc2n1-c1cccc(C(C)(C)O)n1 [ADAVOSERTIB] | > 30 µM (inactive) | > 30 µM (inactive) | > 30 µM (inactive) | > 30 µM (inactive) | > 30 µM (inactive) | > 30 µM (inactive) |
| COCCN1CCN(Cc2ccc(-c3n[nH]c4c3C(=O)c3c(NC(=O)NN5CCOCC5)cccc3-4)cc2)CC1 [RGB-286638] | > 30 µM (inactive) | > 30 µM (inactive) | > 30 µM (inactive) | > 30 µM (inactive) | 1.34 µM (active) | 1.05 µM (active) |
| Cc1c(Cn2c(C)nc3c(C(=O)O)cc(N4CCOCC4)cc32)cccc1C(F)(F)F [GSK-2636771] | > 30 µM (inactive) | > 30 µM (inactive) | > 30 µM (inactive) | > 30 µM (inactive) | > 30 µM (inactive) | > 30 µM (inactive) |
